For one test, the target named is AD homogenates (Homo sapiens, UniProt P05067). The experiment in a line: Saturation binding of [18F]-9 with AD homogenates. How it is done: For assessing the ability of [^18F]-9 to bind Aβ plaques; binding assays with either AD homogenates or preformed Aβ1–42 aggregates were performed in 30 mM Tris, pH 7.4 buffer supplemented with 0.1% BSA[39]. Nonspecific binding was determined in the presence of 5 (1 μM) as a competitor.
Scientific Reports Version of August 4, 2016 other neurodegenerative diseases (SI, Figure 4A & 4B). Sections were visualized, processed, and analyzed using a Pascal confocal microscope.
Preparation of Human Brain Homogenates.
Well-established literature procedures were used for preparation of AD homogenates. 11,12 Grey matter was isolated from frozen postmortem frontal cortex tissue by dissection with a scalpel. […]
Binding assays were performed using previously described methods.11 Briefly, a fixed concentration (0.25 µM/well) of Aβ1–42 fibrils was incubated for 1 h at 37 °C with increasing concentrations of [18F]-9 (0.1 nM-15 nM) in 30 mM Tris-HCl pH 7.4, 0.1% BSA in a reaction volume of 150 µl. […] The exact hot:cold ([18F]-9 : 5) ratio was measured in each experiment by counting an aliquot of a sample (2 µl) of the radioligand preparation in a scintillation counter. Binding of [18F]-9 to human brain homogenates was assessed by incubating samples of insoluble fraction (1.25 µg insoluble protein/well) from AD subjects, with increasing concentrations of [18F]-9 (0.1nM-18 nM) for 1 h at 37 °C. Nonspecific binding was determined in parallel experiments in the presence of 5 (1 µM) as a competitor. […] Glass fiber filters containing the bound ligand were mixed with Optiphase Supermix scintillation cocktail (150µl; PerkinElmer) and counted immediately.
All data were obtained in triplicate and analyzed by curve fitting to a one-site binding model using nonlinear regression employing Graphpad Prism software (version 4.0) to determine Kd and Bmax values.
Bmax values were calculated in pmol/gram wet weight of brain tissue. […]

Another test deals with cortical Aβ plaques (Homo sapiens, UniProt P05067). The experiment in a line: In vitro autoradiography of AD frontal cortex sections. The class given is binding. As for the experimental part:
Literature precedents indicate the presence of at least three different binding sites, characterized as BS1, BS2 and BS3 on the Aβ fibrils in vitro[24] and extracts from AD homogenates. […] Overall, these investigations indicate that different PET tracers may be beneficial to better understand Aβ pathophysiology in vivo. […] Further, to evaluate ability of [^18F]-9 for labeling Aβ in autopsy confirmed human brain sections, autoradiography and immunohistochemical correlations were also performed.
Scientific Reports Version of August 4, 2016
Autoradiography of Human Brain Sections and Immunohistochemistry Correlation Autoradiography and immunohistochemistry (IHC) were performed as previously described14 with minor modifications. Briefly, a sample of frozen AD frontal cortex was sectioned using a TBS Minotome PLUS Cryostat set at a thickness of 12 microns. The tissue sections were thaw-mounted onto Superfrost Plus (Fisherbrand 12-550-15) microscope slides and allowed to air dry for 10–15 min prior to storage at -80 °C. […]
Autoradiography images were obtained on GE Typhoon System FLA-9500 (Tokyo, Japan) at 25 µm resolution. […] IHC images were obtained on a NanoZoomer 2.0-HT System ([…]) at 20x resolution with DAPI and TRITC fluorescence filters using NDP.scan 2.5 software ([…]). […]

Sequence of AD homogenates (P05067 672-711 limits assumed): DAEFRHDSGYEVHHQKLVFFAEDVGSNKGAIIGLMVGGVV
Sequence of cortical Aβ plaques (P05067 672-711 limits assumed): as above

As to `CN(C)c1ncc(/C=C\c2nc3cc(OCC[18F])ccc3[se]2)cn1` [[^18F]-9], on AD homogenates, the Bmax came to 546 pmol/g wet wt and the “binding affinity higher than approved FDA tracers” value was 2–10 fold. Further, the Kd on AD homogenates (30 mM Tris pH 7.4, 0.1% BSA, one-site model) worked out at 1.7 nM. In addition, the labeling in autoradiography entry on cortical Aβ plaques (2 nM, 60 min, AD frontal cortex sections (12 μm)) is listed as “showed labeling of cortical Aβ plaques”.

On to `CN(C)c1ncc(/C=C\c2nc3cc(OCCF)ccc3[se]2)cn1` [compound 5, (Z)-5-(2-(5-(2-fluoroethoxy)benzo[d][1,3]selenazol-2-yl)vinyl)-N,N-dimethylpyrimidin-2-amine], for which the “effect on [18F]-9 binding in autoradiography” value at cortical Aβ plaques (1 μM cold ligand with 2 nM [18F]-9) is reported as “binding was inhibited”.

Usually Kd stands for a measure of binding affinity in units of concentration.
